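In this assay, cells in 96-well plates receive the compound at five concentrations for 48 hours. Endpoints are linearly interpolated between the surrounding concentrations. TGI marks complete inhibition of growth.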
Key:
Experiment in all cases: inhibition of tumour cell growth, NCI panel, 48 h
786-0 renal = test system: 786-0 renal
A498 renal = test system: A498 renal
A549 NSCLC = test system: A549 NSCLC
ACHN renal = test system: ACHN renal
BT-549 breast = test system: BT-549 breast
CAKI-1 renal = test system: CAKI-1 renal
CCRF-CEM leukemia = test system: CCRF-CEM leukemia
COLO 205 colon = test system: COLO 205 colon
DU-145 prostate = test system: DU-145 prostate
EKVX NSCLC = test system: EKVX NSCLC
HCC-2998 colon = test system: HCC-2998 colon
HCT-116 colon = test system: HCT-116 colon
HCT-15 colon = test system: HCT-15 colon
HL-60(TB) leukemia = test system: HL-60(TB) leukemia
HOP-62 NSCLC = test system: HOP-62 NSCLC
HOP-92 NSCLC = test system: HOP-92 NSCLC
HS 578T breast = test system: HS 578T breast
HT29 colon = test system: HT29 colon
IGROV1 ovarian = test system: IGROV1 ovarian
K-562 leukemia = test system: K-562 leukemia
KM12 colon = test system: KM12 colon
LOX IMVI melanoma = test system: LOX IMVI melanoma
M14 melanoma = test system: M14 melanoma
MALME-3M melanoma = test system: MALME-3M melanoma
MCF7 breast = test system: MCF7 breast
MDA-MB-231 breast = test system: MDA-MB-231 breast
MDA-MB-435 = test system: MDA-MB-435
MDA-N = test system: MDA-N
MOLT-4 leukemia = test system: MOLT-4 leukemia
NCI-H226 lung = test system: NCI-H226 lung
NCI-H23 lung = test system: NCI-H23 lung
NCI-H460 lung = test system: NCI-H460 lung
NCI-H522 lung = test system: NCI-H522 lung
NCI/ADR-RES ovarian = test system: NCI/ADR-RES ovarian
OVCAR-3 ovarian = test system: OVCAR-3 ovarian
OVCAR-4 ovarian = test system: OVCAR-4 ovarian
OVCAR-5 ovarian = test system: OVCAR-5 ovarian
OVCAR-8 ovarian = test system: OVCAR-8 ovarian
PC-3 prostate = test system: PC-3 prostate
RPMI-8226 leukemia = test system: RPMI-8226 leukemia
RXF 393 renal = test system: RXF 393 renal
SF-268 CNS = test system: SF-268 CNS
SF-295 CNS = test system: SF-295 CNS
SF-539 CNS = test system: SF-539 CNS
SK-MEL-2 melanoma = test system: SK-MEL-2 melanoma
SK-MEL-28 melanoma = test system: SK-MEL-28 melanoma
SK-MEL-5 melanoma = test system: SK-MEL-5 melanoma
SK-OV-3 ovarian = test system: SK-OV-3 ovarian
SN12C renal = test system: SN12C renal
SNB-19 CNS = test system: SNB-19 CNS
SNB-75 CNS = test system: SNB-75 CNS
SR leukemia = test system: SR leukemia
SW-620 colon = test system: SW-620 colon
T-47D breast = test system: T-47D breast
TK-10 renal = test system: TK-10 renal
U251 CNS = test system: U251 CNS
UACC-257 melanoma = test system: UACC-257 melanoma
UACC-62 melanoma = test system: UACC-62 melanoma
UO-31 renal = test system: UO-31 renal

SMILES: c1ccc(-c2cn3c(nc4ccccc43)c(-c3ccccc3)n2)cc1
- TGI (786-0 renal): 45.1 µM
- TGI (A498 renal): > 78.1 µM
- TGI (A549 NSCLC): > 100 µM
- TGI (ACHN renal): > 100 µM
- TGI (BT-549 breast): > 100 µM
- TGI (CAKI-1 renal): > 100 µM
- TGI (CCRF-CEM leukemia): > 100 µM
- TGI (COLO 205 colon): > 100 µM
- TGI (DU-145 prostate): > 100 µM
- TGI (EKVX NSCLC): > 100 µM
- TGI (HCC-2998 colon): > 100 µM
- TGI (HCT-116 colon): > 100 µM
- TGI (HCT-15 colon): > 100 µM
- TGI (HL-60(TB) leukemia): > 100 µM
- TGI (HOP-62 NSCLC): 27.9 µM
- TGI (HOP-92 NSCLC): 62 µM
- TGI (HS 578T breast): > 94.2 µM
- TGI (HT29 colon): > 100 µM
- TGI (IGROV1 ovarian): > 100 µM
- TGI (K-562 leukemia): > 100 µM
- TGI (KM12 colon): > 100 µM
- TGI (LOX IMVI melanoma): > 100 µM
- TGI (M14 melanoma): > 100 µM
- TGI (MALME-3M melanoma): > 100 µM
- TGI (MCF7 breast): > 100 µM
- TGI (MDA-MB-231 breast): > 100 µM
- TGI (MDA-MB-435): > 100 µM
- TGI (MDA-N): > 31.6 µM
- TGI (MOLT-4 leukemia): > 100 µM
- TGI (NCI-H226 lung): > 96.7 µM
- TGI (NCI-H23 lung): > 100 µM
- TGI (NCI-H460 lung): > 100 µM
- TGI (NCI-H522 lung): > 100 µM
- TGI (NCI/ADR-RES ovarian): > 100 µM
- TGI (OVCAR-3 ovarian): > 100 µM
- TGI (OVCAR-4 ovarian): > 26 µM
- TGI (OVCAR-5 ovarian): > 100 µM
- TGI (OVCAR-8 ovarian): 40.3 µM
- TGI (PC-3 prostate): > 100 µM
- TGI (RPMI-8226 leukemia): > 100 µM
- TGI (RXF 393 renal): > 54.3 µM
- TGI (SF-268 CNS): > 100 µM
- TGI (SF-295 CNS): > 71.9 µM
- TGI (SF-539 CNS): > 100 µM
- TGI (SK-MEL-2 melanoma): > 62.5 µM
- TGI (SK-MEL-28 melanoma): > 100 µM
- TGI (SK-MEL-5 melanoma): > 100 µM
- TGI (SK-OV-3 ovarian): 38.4 µM
- TGI (SN12C renal): > 100 µM
- TGI (SNB-19 CNS): 81.7 µM
- TGI (SNB-75 CNS): > 32.9 µM
- TGI (SR leukemia): > 100 µM
- TGI (SW-620 colon): > 100 µM
- TGI (T-47D breast): > 71.3 µM
- TGI (TK-10 renal): > 93.4 µM
- TGI (U251 CNS): 32.1 µM
- TGI (UACC-257 melanoma): > 100 µM
- TGI (UACC-62 melanoma): > 55.6 µM
- TGI (UO-31 renal): > 65.4 µM
